From paper PMC3702004, “Comparison of Intake and Systemic Relative Effect Potencies of Dioxin-like Compounds in Female Mice after a Single Oral Dose” (Environmental Health Perspectives, 2013)

Key:
[1] = Body and organ weight, hepatic lipid content; type: in vivo, female C57BL/6 mice; conditions: day 3; for % lipid / g liver: pooled liver samples
Procedure: (§1) Animals. Eight-week-old female C57BL/6 mice (Harlan laboratories, Venray, the Netherlands) were randomly assigned to treatment groups (six animals per group) and allowed to acclimate for 1.5 weeks. The animals were housed in groups in standard cages and conditions (23 ± 2°C, 50–60% relative humidity, 12-hr dark/light cycle) with free access to food and water. Mice received a single dose of test compound by oral gavage at a dosing volume of 10 mL/kg body weight (BW). Mice treated with corn oil vehicle (10 mL/kg BW) served as controls. For each congener, five different doses were administered, ranging from 0.5–100 μg/kg BW (TCDD) to 5,000–500,000 µg/kg BW (PCB-153). Detailed information on doses is provided in Supplemental Material, Table S1 (http://dx.doi.org/10.1289/ehp.1206336). On day 3 after dosing, animals were euthanized by CO2/O2 asphyxiation, and blood was immediately collected from the abdominal aorta. The liver, thymus, spleen, and adipose tissue were removed, weighed (liver, thymus, and spleen), snap frozen, and stored at –80°C. All animal treatments were performed with permission of the Animal Ethical Committee (DEC Utrecht) and performed according to the [Law on Animal Experiments (1977)]. Animals were treated humanely and with regard for alleviation of suffering.
Compound analysis. Adipose and liver tissues samples were homogenized in Na2SO4, followed by extraction and clean-up in one step, and then eluted with 200 mL 1:1 hexane:dichloromethane on an open column packed with 40% wt/wt H2SO4-impregnated silica and KOH-silica. Blood plasma samples were extracted on an open column using Chem-Elut (Agilent Technologies, Santa Clara, CA, USA) and then NaCl eluted with 75 mL 3:2 hexane:2-propanol. Clean-up was performed using a miniaturized silica column (as described above), and samples were eluted using 30 mL hexane. Because the samples typically contained high levels of the analytes, only a small fraction was evaporated and analyzed. Prior to evaporation, we spiked a fraction of the samples with ^13C-labeled standards. We checked potential loss of analytes during extraction and clean-up by reextracting the samples using the identical protocol used for the samples. […] Tetradecane was added prior to evaporation. Sample analysis followed the U.S. Environmental Protection Agency Method 1613 ([U.S. Environmental Protection Agency 1994]) using single ion monitoring mode on an Agilent 6809N gas chromatograph (Agilent Technologies) coupled with a Micromass Ultima Autospec Ultra high-resolution mass spectrometer (HRMS; Waters Corp., Milford, MA, USA). Compounds were separated on a 60 m × 0.25 mm DB5-MS column ([…]; J&W Scientific, Folsom, CA, USA). The HRMS was operated with electron impact ionization with electron energy of 35 eV and an ion source temperature of 250°C. To reduce the number of analyses, samples were pooled before clean-up. […] This method was used because full congener–specific separation could be achieved on the high-resolution GC–HRMS. For lipid determination, samples were evaporated to dryness after the extraction step, and the amount of lipids was determined gravimetrically. Concentrations were calculated based on lipid weight and wet weight. The analysis of samples for the PCB-118 5,000 μg/kg BW dose failed during the procedure; thus analysis for this group could not be completed.
Statistical analysis. Statistical significant differences of the means and variances were determined using one-way analysis of variance (ANOVA) followed by Tukey-Kramer multiple comparisons. Differences were considered statistically significant at p < 0.05. Statistical calculations were performed using GraphPad 6.01 (GraphPad Software Inc.).

[2] = test system: hepatic CYP1A1 activity (ethoxyresorufin-O-deethylase, EROD); assay: Hepatic EROD activity in hepatic microsomal fractions after single oral dose; type: in vivo, female C57BL/6 mice; conditions: for BMR20TCDD Liver EROD activity: 3 days after single oral dose; for REP Liver EROD activity: relative to TCDD
Procedure: as §1
EROD activity. We determined hepatic CYP1A1 activity using ethoxyresorufin-O-deethylase (EROD) activity in hepatic microsomal fractions as described by [Schulz et al. (2012)].
Data analysis. We obtained concentration–response curves using a sigmoidal dose–response nonlinear regression curve fit with variable slope (GraphPad Prism 6.01; GraphPad Software Inc., San Diego, CA, USA):
In this Hill equation, y is the dependent variable (EROD activity or fold induction of mRNA levels), x the independent variable (administered or systemic dose), E0 is the estimated background response level, Emax is the maximum response, b is the estimated median effective concentration (EC50), and n is the shaping parameter of the Hill curve.
Using the congener-specific BMR20TCDD concentration, REPs were calculated relatively to TCDD: […]

[3] = dose metric Adm dose (µg/kg BW)
[4] = dose metric Syst adipose (ng/g lipid)
[5] = dose metric Syst liver (ng/g lipid)
[6] = dose metric Syst liver (ng/g liver)
[7] = dose metric Syst plasma (ng/g lipid)

Clc1ccc(-c2cc(Cl)c(Cl)c(Cl)c2Cl)cc1Cl [PCB-156, 2,3,3´,4,4´,5-hexachlorobiphenyl]
Body weight ([1]; oral dose 5000 µg/kg bw): 17.7 ± 0.7 gram | Liver weight ([1]; oral dose 5000 µg/kg bw): 4.71 ± 0.43 % of bw | Spleen weight ([1]; oral dose 5000 µg/kg bw): 0.27 ± 0.03 % of bw | Thymus weight ([1]; oral dose 5000 µg/kg bw): 0.21 ± 0.05 % of bw | % lipid / g liver ([1]; oral dose 5000 µg/kg bw): 3.0% | Body weight ([1]; oral dose 15000 µg/kg bw): 18.7 ± 1.3 gram | Liver weight ([1]; oral dose 15000 µg/kg bw): 5.14 ± 0.41 % of bw | Spleen weight ([1]; oral dose 15000 µg/kg bw): 0.30 ± 0.03 % of bw | Thymus weight ([1]; oral dose 15000 µg/kg bw): 0.23 ± 0.04 % of bw | % lipid / g liver ([1]; oral dose 15000 µg/kg bw): 3.3% | Body weight ([1]; oral dose 50000 µg/kg bw): 18.0 ± 0.9 gram | Liver weight ([1]; oral dose 50000 µg/kg bw): 5.96 ± 0.62 % of bw | Spleen weight ([1]; oral dose 50000 µg/kg bw): 0.31 ± 0.04 % of bw | Thymus weight ([1]; oral dose 50000 µg/kg bw): 0.25 ± 0.02 % of bw | % lipid / g liver ([1]; oral dose 50000 µg/kg bw): 5.7% | Body weight ([1]; oral dose 150000 µg/kg bw): 19.2 ± 1.1 gram | Liver weight ([1]; oral dose 150000 µg/kg bw): 6.79 ± 0.51 % of bw | Spleen weight ([1]; oral dose 150000 µg/kg bw): 0.29 ± 0.02 % of bw | Thymus weight ([1]; oral dose 150000 µg/kg bw): 0.21 ± 0.04 % of bw | % lipid / g liver ([1]; oral dose 150000 µg/kg bw): 6.8% | Body weight ([1]; oral dose 500000 µg/kg bw): 18.7 ± 0.6 gram | Liver weight ([1]; oral dose 500000 µg/kg bw): 8.10 ± 0.17 % of bw | Spleen weight ([1]; oral dose 500000 µg/kg bw): 0.33 ± 0.03 % of bw | Thymus weight ([1]; oral dose 500000 µg/kg bw): 0.18 ± 0.05 % of bw | Dose with significant increase in liver weight vs vehicle controls ([1]; single oral dose): ≥ 50,000 µg/kg BW | BMR20TCDD Liver EROD activity ([2]; dose metric Adm dose): 15,664 µg/kg BW | BMR20TCDD Liver EROD activity ([2]; dose metric Syst adipose): 82,483 ng/g lipid | BMR20TCDD Liver EROD activity ([2]; dose metric Syst plasma): 98,188 ng/g lipid | REP Liver EROD activity [2, 3]: 0.00002 | REP Liver EROD activity [2, 4]: 0.00001 | REP Liver EROD activity [2, 5]: 0.0002 | REP Liver EROD activity [2, 6]: 0.0002 | REP Liver EROD activity [2, 7]: 0.00001

Clc1cc2c(cc1Cl)Oc1c(cc(Cl)c(Cl)c1Cl)O2 [PeCDD, 1,2,3,7,8-pentachlorodibenzodioxin]
Body weight ([1]; oral dose 0.5 µg/kg bw): 18.6 ± 1.3 gram | Liver weight ([1]; oral dose 0.5 µg/kg bw): 4.56 ± 0.34 % of bw | Spleen weight ([1]; oral dose 0.5 µg/kg bw): 0.30 ± 0.02 % of bw | Thymus weight ([1]; oral dose 0.5 µg/kg bw): 0.21 ± 0.03 % of bw | % lipid / g liver ([1]; oral dose 0.5 µg/kg bw): 4.7% | Body weight ([1]; oral dose 2.5 µg/kg bw): 19.4 ± 1.1 gram | Liver weight ([1]; oral dose 2.5 µg/kg bw): 5.02 ± 0.26 % of bw | Spleen weight ([1]; oral dose 2.5 µg/kg bw): 0.31 ± 0.03 % of bw | Thymus weight ([1]; oral dose 2.5 µg/kg bw): 0.29 ± 0.04 % of bw | % lipid / g liver ([1]; oral dose 2.5 µg/kg bw): 6.0% | Body weight ([1]; oral dose 10 µg/kg bw): 18.9 ± 1.2 gram | Liver weight ([1]; oral dose 10 µg/kg bw): 5.32 ± 0.43 % of bw | Spleen weight ([1]; oral dose 10 µg/kg bw): 0.32 ± 0.04 % of bw | Thymus weight ([1]; oral dose 10 µg/kg bw): 0.23 ± 0.06 % of bw | % lipid / g liver ([1]; oral dose 10 µg/kg bw): 6.2% | Body weight ([1]; oral dose 25 µg/kg bw): 19.4 ± 1.5 gram | Liver weight ([1]; oral dose 25 µg/kg bw): 5.26 ± 0.27 % of bw | Spleen weight ([1]; oral dose 25 µg/kg bw): 0.32 ± 0.04 % of bw | Thymus weight ([1]; oral dose 25 µg/kg bw): 0.26 ± 0.05 % of bw | Body weight ([1]; oral dose 100 µg/kg bw): 18.8 ± 1.1 gram | Liver weight ([1]; oral dose 100 µg/kg bw): 5.83 ± 0.50 % of bw | Spleen weight ([1]; oral dose 100 µg/kg bw): 0.33 ± 0.04 % of bw | Thymus weight ([1]; oral dose 100 µg/kg bw): 0.24 ± 0.05 % of bw | Dose with significant increase in liver weight vs vehicle controls ([1]; single oral dose): ≥ 100 µg/kg BW | BMR20TCDD Liver EROD activity ([2]; dose metric Adm dose): 0.54 µg/kg BW | BMR20TCDD Liver EROD activity ([2]; dose metric Syst adipose): 1.25 ng/g lipid | BMR20TCDD Liver EROD activity ([2]; dose metric Syst plasma): 2.31 ng/g lipid | REP Liver EROD activity [2, 3]: 0.5 | REP Liver EROD activity [2, 4]: 1 | REP Liver EROD activity [2, 5]: 0.3 | REP Liver EROD activity [2, 6]: 0.3 | REP Liver EROD activity [2, 7]: 0.6

Clc1cc2c(cc1Cl)Oc1cc(Cl)c(Cl)cc1O2 [TCDD, 2,3,7,8-tetrachlorodibenzodioxin, reference compound]
Body weight ([1]; oral dose 0.5 µg/kg bw): 19.3 ± 0.8 gram | Liver weight ([1]; oral dose 0.5 µg/kg bw): 5.08 ± 0.27 % of bw | Spleen weight ([1]; oral dose 0.5 µg/kg bw): 0.34 ± 0.05 % of bw | Thymus weight ([1]; oral dose 0.5 µg/kg bw): 0.28 ± 0.06 % of bw | % lipid / g liver ([1]; oral dose 0.5 µg/kg bw): 5.3% | Body weight ([1]; oral dose 2.5 µg/kg bw): 19.2 ± 1.3 gram | Liver weight ([1]; oral dose 2.5 µg/kg bw): 5.37 ± 0.20 % of bw | Spleen weight ([1]; oral dose 2.5 µg/kg bw): 0.32 ± 0.05 % of bw | Thymus weight ([1]; oral dose 2.5 µg/kg bw): 0.23 ± 0.05 % of bw | % lipid / g liver ([1]; oral dose 2.5 µg/kg bw): 7.2% | Body weight ([1]; oral dose 10 µg/kg bw): 18.8 ± 1.1 gram | Liver weight ([1]; oral dose 10 µg/kg bw): 5.49 ± 0.37 % of bw | Spleen weight ([1]; oral dose 10 µg/kg bw): 0.30 ± 0.04 % of bw | Thymus weight ([1]; oral dose 10 µg/kg bw): 0.18 ± 0.06 % of bw | % lipid / g liver ([1]; oral dose 10 µg/kg bw): 7.4% | Body weight ([1]; oral dose 25 µg/kg bw): 19.6 ± 0.8 gram | Liver weight ([1]; oral dose 25 µg/kg bw): 5.86 ± 0.22 % of bw | Spleen weight ([1]; oral dose 25 µg/kg bw): 0.34 ± 0.02 % of bw | Thymus weight ([1]; oral dose 25 µg/kg bw): 0.23 ± 0.02 % of bw | Body weight ([1]; oral dose 100 µg/kg bw): 19.4 ± 0.6 gram | Liver weight ([1]; oral dose 100 µg/kg bw): 6.09 ± 0.44 % of bw | Spleen weight ([1]; oral dose 100 µg/kg bw): 0.34 ± 0.02 % of bw | Thymus weight ([1]; oral dose 100 µg/kg bw): 0.19 ± 0.04 % of bw | Dose with significant increase in liver weight vs vehicle controls ([1]; single oral dose): ≥ 10 µg/kg BW | Dose with statistically significant decrease in relative thymus weight vs vehicle controls ([1]; single oral dose): ≥ 2.5 μg/kg BW | BMR20TCDD Liver EROD activity ([2]; dose metric Adm dose): 0.29 µg/kg BW | BMR20TCDD Liver EROD activity ([2]; dose metric Syst adipose): 1.23 ng/g lipid | BMR20TCDD Liver EROD activity ([2]; dose metric Syst plasma): 1.38 ng/g lipid | REP Liver EROD activity [2, 3]: 1 | REP Liver EROD activity [2, 4]: 1 | REP Liver EROD activity [2, 5]: 1 | REP Liver EROD activity [2, 6]: 1 | REP Liver EROD activity [2, 7]: 1
